In the METLIN SMRT retention time set (Domingo-Almenara et al. 2019) one finds RP-LC retention time data, which are given here for 79 molecules.

The nature of the data set: gradient 5% acetonitrile 3 min, to 50% in 2 min, to 85% in 15 min, held 3 min, 100 µL/min. Particulars: column: Zorbax Extend-C18 2.1 x 50 mm; eluents: water / acetonitrile, 0.1% formic acid. The method, boiled down:
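Over 3 months, pure standards in mixtures of ~100 molecules were run by HPLC coupled to a quadrupole time-of-flight mass spectrometer in positive and negative ionization mode. The column was a Zorbax Extend-C18 (2.1 × 50 mm, 1.8 μm) at 100 μL/min, eluted with water and acetonitrile each holding 0.1% formic acid, with 40 μL dead and 900 μL dwell volumes. Retention time was determined from adduct peaks chosen by software and checked manually.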
`COc1ccc(OC)c(NC(=O)C2CCCN2S(=O)(=O)c2ccc3c(c2)NC(=O)CO3)c1` (centres undefined) showed an RP-LC retention time of 803 s.
As for `CC(C)c1nncn1C1CCN(S(=O)(=O)Cc2ccc(Cl)cc2)CC1`, the RP-LC retention time is 742 s.
With `O=C(Cn1cc(-c2ccccc2)c2ncnc(N3CCCCC3)c21)Nc1ccccc1`, the RP-LC retention time amounted to 798 s.
Next, `O=C(CS(=O)(=O)c1cn(Cc2cccc(F)c2)c2ccccc12)Nc1ccc(F)cc1`: 918 s; `Cc1cc(C)n(-c2cc(N3CCCC(C(=O)Nc4cccc(C(F)(F)F)c4)C3)ncn2)n1` (centres undefined): 1060 s; `O=C(NCc1ccccc1)C1CCN(S(=O)(=O)c2ccc3[nH]c(=O)ccc3c2)CC1`: 683 s.
Take `CC(C)C(=O)NCCc1csc(C2CCCN(C(=O)C3CCC3)C2)n1` (centres undefined): the RP-LC retention time came to 711 s.
The molecule `CCC(=O)Nc1ccc(CCc2nc3ccc(C(=O)NC4CC4)cc3[nH]2)cc1` yielded an RP-LC retention time of 582 s.
For the molecule `COc1ccc(NC(=O)c2ccc3nc(-c4ccccc4)cn3c2)c(OC)c1`, the RP-LC retention time is 722 s.
The molecule `CCOc1ccc(NC(=O)NC2CCN(c3cc(C)cc(C)c3)C2=O)cc1` (centres undefined) returned an RP-LC retention time of 886 s.
`COc1ccc(OC(=O)c2cn(CC(C)C)c(=O)c3ccccc23)cc1` registered an RP-LC retention time of 1180 s.
For the molecule `Cc1ccc(C(=O)NCCn2c(C)cnc2C)s1`, the RP-LC retention time amounted to 589 s.
In the case of `Cc1ccc(NC(=O)C2CCN(S(=O)(=O)c3ccc4c(c3)sc(=O)n4C(C)C)CC2)cc1F`, the RP-LC retention time was 1050 s.
Regarding `O=C(CN1c2ccccc2NC2=C(C(=O)CCC2)C1c1ccco1)Nc1ccc(F)cc1` (centres undefined), the RP-LC retention time came to 1070 s.
Consider `O=C(CSc1nnc(-c2ccc(Br)cc2)o1)OCc1ccccc1`, for which the RP-LC retention time is 1150 s.
On to `CCCn1c(=O)sc2cc(S(=O)(=O)N3CCC(C(=O)Nc4ccc(F)c(F)c4)CC3)ccc21`, for which the RP-LC retention time turned out to be 1030 s.
`CCn1cc(-c2nc(C(=O)Nc3ccc(F)cc3F)cs2)c2cccnc21`: the RP-LC retention time stood at 1220 s.
The value for `COc1ccc(-c2csc(Nc3ccccc3)n2)cc1` was 1070 s; that for `COc1ccc(-c2noc(CN3N=NC4C(=O)N(c5ccc(F)c(F)c5)C(=O)C43)n2)cc1` (centres undefined) was 1130 s; that for `COc1ccc(NC(=O)C2CCN(c3cc(N4CCCC4)ncn3)CC2)cc1OC` was 616 s.
`Cc1noc(C)c1S(=O)(=O)N1CCC(c2nn(C)c(=O)n2C2CCCC2)CC1` registered an RP-LC retention time of 856 s.
In turn, `Cc1cc(C)cc(NC(=O)CN2C(=O)C3CCCCN3c3ccc(S(=O)(=O)N(C)C)cc32)c1` (centres undefined) came in with an RP-LC retention time of 994 s.
Turning to `CCN1C(=O)CCc2cc(NC(=O)CCc3ccccc3OC)ccc21`, the RP-LC retention time is 787 s.
The molecule `CCn1cc(-c2nc(C)c(C(=O)Nc3ccc(F)cc3)s2)c2cccnc21` registered an RP-LC retention time of 999 s.
As for `Cc1ccc(C)c(CN2CCn3c(nn(C)c3=O)C2)c1`, the RP-LC retention time was 747 s.
Next, `Cc1csc(-c2cc(S(=O)(=O)NCCc3ccc(Cl)cc3)c(C)s2)n1`: 1110 s; `Cc1ccccc1NC(=O)C1(C)Oc2cccnc2N(C)C1=O` (centres undefined): 778 s.
The value for `CCc1nc2cc(N3CCC(C(=O)NC(C)c4cccnc4)CC3)cnc2nc1CC` (centres undefined) was 596 s; that for `Cc1ccc(NC(=O)C2CC(=O)N(c3n[nH]c4cccc(F)c34)C2)nc1` (centres undefined) was 606 s; that for `CCCCN1C(=O)C(C)(C(=O)Nc2ccccc2)Oc2cccnc21` (centres undefined) was 999 s.
Take `CCn1c(C2CCN(C(=O)c3ccc(Br)o3)C2)nc2cccnc21` (centres undefined): the RP-LC retention time was 678 s.
For `COc1ccc(OC)c(NC(=O)C2CCCN(S(=O)(=O)Cc3ccc(Cl)cc3)C2)c1` (centres undefined), the RP-LC retention time amounted to 1050 s.
Molecule `Nc1cc(C2CCN(C(=O)Nc3ccc(F)c(Cl)c3)CC2)no1` came in with an RP-LC retention time of 750 s.
The molecule `O=C(NCC1(c2cccs2)CCOCC1)C(=O)NC1CCCC1` yielded an RP-LC retention time of 775 s.
`O=C(Cn1cccc1-c1nc(-c2ccc(Cl)cc2)cs1)N1CCCC1` registered an RP-LC retention time of 1130 s.
Turning to `CCN1CCN(C(=O)Cc2c(C)nc3nc(-c4ccccc4)nn3c2C)CC1`, the RP-LC retention time was 589 s.
Turning to `Cc1cc(C)n(-c2ccc(N3CCN(C(=O)c4ccc(S(N)(=O)=O)cc4)CC3)nn2)n1`, the RP-LC retention time was 620 s.
In turn, `CCOc1cc(=O)n2c(c1C(=O)NC1CCc3ccccc31)CCCCC2` (centres undefined) came in with an RP-LC retention time of 766 s.
Consider `Cn1nc(C(=O)N2CCCC(C(=O)NC3CC3)C2)c2c1CCN(C(=O)c1c(F)cccc1F)C2` (centres undefined), for which the RP-LC retention time is 660 s.
Take `COc1c(C=O)c2c(c(OC)c1OC)-c1ccc(OC)c(=O)cc1[C@@H](NC(C)=O)CC2`: the RP-LC retention time is 725 s.
Next, `O=C(Cc1cccc(F)c1)N1CCCC1c1nc(-c2ccccc2Cl)no1` (centres undefined): 1200 s; `COc1cccc(CNC(=O)Cn2c(=O)c3cc(-c4ccco4)nn3c3ncccc32)c1`: 771 s; `O=C(Nc1cccc(Cl)c1)C1CCN(S(=O)(=O)c2cc(C(=O)N3CCCC3)cs2)CC1`: 884 s.
Turning to `O=C(Cc1ccc(Cl)cc1)N1CCc2cc(-c3ccno3)ccc21`, the RP-LC retention time stood at 1030 s.
The value for `CC(C)CCNC(=O)C1(CCO)CCN(c2ncccn2)C1` (centres undefined) was 614 s; that for `O=S(=O)(Nc1ccc(-c2noc(-c3ccc(Cl)cc3)n2)cc1)c1cccs1` was 1180 s.
For the molecule `CNC(=O)c1cc(N2CCCC2)nc2ccc(F)cc12`, the RP-LC retention time came out at 591 s.
In the case of `COc1ccccc1NC(=O)N1CCCC(Cn2c(C3CC3)nc3cccnc32)C1` (centres undefined), the RP-LC retention time was 681 s.
On to `COc1ccc(OCc2noc(CNC(=O)CSc3nc4ccccc4s3)n2)cc1`, for which the RP-LC retention time stood at 855 s.
Next, `CC(C)(C)c1ccc(O)c(NC(=O)c2cn(-c3ccc(S(=O)(=O)N4CCCCC4)cc3)cn2)c1`: 1100 s.
In turn, `O=C(O)[C@@H]1OCCN(C2CC2)[C@H]1c1ccccc1` showed an RP-LC retention time of 545 s.
`COc1ccc(S(=O)(=O)N2CCN(c3cc(C)c4ccccc4n3)CC2)cc1`: the RP-LC retention time worked out at 701 s.
In turn, `Cc1cccc(NC(=O)Cn2cnc3nc(N4CCCC(C(=O)NC5CC5)C4)sc3c2=O)c1C` (centres undefined) showed an RP-LC retention time of 688 s.
Next, `Cc1ccn2c(Nc3ccccc3C)c(-c3cc(Br)ccc3F)nc2c1`: 814 s.
Next, `O=C(NC1CCCCC1)c1nnc(-c2ccc(S(=O)(=O)N3CCOCC3)cc2)o1`: 854 s; `Cc1nn(C)c(=O)c2cc(S(=O)(=O)NCc3ccc(F)cc3)cn12`: 766 s.
Next, `O=C(NCC(O)c1cccc2ccccc12)NC1CCCCC1` (centres undefined): 781 s.
As to `COc1cc(NC(=O)C2CCCN(C(=O)c3cc(-c4ccncc4)n[nH]3)C2)cc(OC)c1OC` (centres undefined), the RP-LC retention time came to 591 s.
The molecule `Cn1ncc2c3ccccc3n(CCCC(=O)N3CCCCC3)c2c1=O` had an RP-LC retention time of 824 s.
In turn, `CCOc1ccc(C(=O)N2CCc3nc(-c4ccc(OC)cc4)ncc3C2)cc1` returned an RP-LC retention time of 962 s.
In turn, `COc1ccc(Cc2nnc(C3CCN(C(=O)c4ccco4)CC3)s2)cc1` had an RP-LC retention time of 703 s.
`O=S(=O)(NC1CCCCC1)c1cc(-c2noc(C3CCCC3)n2)cs1` came in with an RP-LC retention time of 1230 s.
`Cc1ccccc1Cn1cc(C(=O)O)c(S(=O)(=O)N2CCSCC2)n1`: the RP-LC retention time was 848 s.
In turn, `O=C(c1ccccc1F)N1N=C(c2cccs2)CC1c1ccc2nccnc2c1` (centres undefined) came in with an RP-LC retention time of 791 s.
In the case of `CC(C(=O)N1CCC(N2CCCCC2)CC1)C1CCN(S(=O)(=O)c2cccs2)CC1` (centres undefined), the RP-LC retention time was 627 s.
Turning to `CC(=O)N1CCC2(CC1)CC(CC(=O)O)CCO2` (centres undefined), the RP-LC retention time amounted to 588 s.
With `CN(C)c1cccc(-c2nn3c(-c4ccc5ccccc5n4)nnc3s2)c1`, the RP-LC retention time worked out at 1070 s.
The molecule `O=C(Cc1ccccc1Cl)NC1CCN(c2ccc(=O)n(CC3CC3)n2)C1` (centres undefined) gave an RP-LC retention time of 760 s.
With `Cc1ccc(NC(=O)N2CCC3(C2)c2nc[nH]c2CCN3C)c(C)c1` (centres undefined), the RP-LC retention time came out at 568 s.
With `CC(C)OCCCNC(=O)c1cc2n(n1)CCCN(Cc1ccc(Cl)cc1)C2=O`, the RP-LC retention time amounted to 855 s.
With `COc1cccc(Cn2c(C(=O)N3CCC(C(=O)NCc4ccc(C)o4)CC3)cc3ccsc32)c1`, the RP-LC retention time came out at 970 s.
In turn, `COc1cccc(CNC(=O)CN2CCN(Cc3ccc(F)cc3Cl)C2=O)c1` returned an RP-LC retention time of 844 s.
Next, `O=C(Cc1nnc2cc(-c3nc(C4CC4)no3)ccn12)N1CCOCC1`: 642 s; `O=C(Cn1ccn2nc(-c3ccc(F)cc3)c(CO)c2c1=O)Nc1ccc(Cl)cc1F`: 909 s.
For `c1cncc(-c2nnc3sc(-c4ccc5c(c4)OCCO5)nn23)c1`, the RP-LC retention time is 827 s.
For `O=C(Nc1ccc2c(c1)CC(C(=O)NCCCc1ccccc1)CO2)c1cccs1` (centres undefined), the RP-LC retention time came to 900 s.
In the case of `Cc1ccc(NC(=O)Cn2nc3c(N4CCCCCC4)nccn3c2=O)cc1F`, the RP-LC retention time worked out at 739 s.
Take `COC(=O)c1ccc(C(=O)Nc2ccc(CC(=O)NC3CC3)cc2)cc1`: the RP-LC retention time amounted to 657 s.
As to `COc1ccc(N2CCN(c3nc(C(=O)NCC4CC4)cs3)CC2)cc1`, the RP-LC retention time came to 915 s.
